Results taken from patent publication US8664186B2, “Stambomycin and derivatives, their production and their uses as drugs” (Universite de Lorraine, priority 2009, dated 2014).
Like-named read-outs stand apart in the source and are kept apart here.

Columns and labels:
HT29 cells = assay: anti-proliferative activity using HT29 cells; type: cell-based, human
Protocol: (§1) Cytotoxicity was tested using CHO-K1 cells and anti-proliferative activity was examined using HT29 cells.
(§2) The effects were compared with Doxorubicin and Sodium butyrate.

CHO-K1 cells = assay: cytotoxicity using CHO-K1 cells; type: cell-based, Chinese hamster; settings: Cricetulus griseus, CHO-K1 ovary sane cell line
Protocol: as §1, §2

CCCC(=O)[O-].[Na+] [Sodium butyrate]
IC50 (HT29 cells; Homo sapiens, HT-29, read-out: IC50 (μM) for HT29): 4890 µM

COc1cccc2c1C(=O)c1c(O)c3c(c(O)c1C2=O)C[C@@](O)(C(=O)CO)C[C@@H]3O[C@H]1C[C@H](N)[C@H](O)[C@H](C)O1 [Doxorubicin]
IC50 (HT29 cells; HT-29, HT29 human colon adenocarcinoma, read-out: IC50 (μM) for HT29): 1.32 µM
IC50 (CHO-K1 cells): 1.99 µM
